Test results reported in US7723320B2, “Use of estrogen compounds to increase libido in women” (Pantarhei Bioscience B.V., priority 2001, dated 2010).
“And” between values parts separate entries of the source, which are not always exact repeats. Equal entries are not always repeated.

How the values were obtained:
[1] = target: T1, human sex Hormone Binding Globulin (SHBG) (Homo sapiens, UniProt P04278); assay: Competitive steroid-binding assay, SHBG; settings: [3H]DHT or [3H]estradiol as labeled ligands
T1 construct: made in house; host or cells: transgenic mouse (purified from serum)
T1 sequence (P04278 30-402): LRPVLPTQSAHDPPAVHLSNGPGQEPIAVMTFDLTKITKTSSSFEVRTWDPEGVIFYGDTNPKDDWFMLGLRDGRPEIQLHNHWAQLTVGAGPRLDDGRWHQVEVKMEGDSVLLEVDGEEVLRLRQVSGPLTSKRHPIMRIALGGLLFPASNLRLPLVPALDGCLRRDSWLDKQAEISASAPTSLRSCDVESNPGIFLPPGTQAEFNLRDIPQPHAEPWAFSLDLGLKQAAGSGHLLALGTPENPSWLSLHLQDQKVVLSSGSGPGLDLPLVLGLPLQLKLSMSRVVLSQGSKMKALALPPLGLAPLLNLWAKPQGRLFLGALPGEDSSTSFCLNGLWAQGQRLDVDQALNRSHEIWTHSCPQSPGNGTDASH
Method: Human SHBG was treated for 30 min at room temperature with a dextran-coated charcoal (DCC) suspension in phosphate buffered saline (PBS) to remove any steroid ligand. After centrifugation (2,000×g for 10 min) to sediment the DCC, the supernatant containing the human SHBG was diluted in PBS to a concentration of 1 nM based on its steroid binding capacity.
The average amounts of [^3H]labeled ligands bound to SHBG at each concentration of competitor (B) were expressed as a percentage of the average amounts of [^3H]labeled ligands bound to SHBG in the absence of competitor (B0), and were plotted against the concentration of competitor in each assay tube.

[2] = system: ovariectomized adult rats; assay: Vaginal cornification bioassay in ovariectomized rats; format: in vivo, rat
Text: Uterine weight increase in the rat is more commonly used as a measure of estrogenicity. […] In the early 1920s it was discovered that follicular fluid from the pig ovary contained a factor(s) that caused cornification/keratinization of the vaginal epithelium in the rat (Allen and Doisy, 1923, JAMA, 81,819-821; Allen and Doisy, 1924, Am. J. Physiol., 69, 577-588). The so-called vaginal cornification response in rats subsequently provided a bioassay for testing estrogenicity. Vaginal epithelial cornification/keratinization in ovariectomized rats can be produced only by compounds considered to be true estrogens (Jones et al, 1973, Fert. Steril. 24, 284-291). […] Adult intact female CD rats were ovariectomized to induce estrogen deficiency. […] Castrate vaginal smears are indicative that complete ovanectomy was achieved. Treatment commenced following completion of the 7 days of smearing (day 0=first day of dosing). Animals were dosed, once daily for 7 consecutive days. Daily vaginal lavages continued to be obtained for 7 days after dosing was initiated in order to detect vaginal cornification, as an indication of an estrogenic response. A drop of vaginal washings was placed on a glass slide and examined by light microscopy to detect the presence or absence of cornified epithelial cells. Vaginal lavages were obtained prior to dosing on days 0-6 and prior to necropsy on day 7. The vaginal cornification bioassay was performed in order to determine the estrogenic profile of E4 when given subcutaneously (sc) to ovariectomized adult rats. E2 was used as a positive control. […] The vaginal cornification bioassay was performed in order to determine the estrogenic profile of E4 when given orally (po) to ovariectomized adult rats. EE was used as a positive control. […] A vaginal estrogenic response occurred in all rats (8/8) given 50 μg/kg/day EE po by day 7 (Table 2).

## C[C@]12CC[C@@H]3c4ccc(O)cc4CC[C@H]3[C@@H]1[C@@H](O)[C@@H](O)[C@@H]2O [E4, 1,3,5(10)-estratrien-3,15α,16α,17β-tetrol]
[1]
  relative binding affinity for human SHBG: does not bind at all
[2]; po, 0.1 mg/kg/day, Day 0
  Number of Rats Exhibiting Estrogenic Response/Number of Rats Treated: 0/8
[2]; po, 0.1 mg/kg/day, Day 1
  Number of Rats Exhibiting Estrogenic Response/Number of Rats Treated: 0/8
[2]; po, 0.1 mg/kg/day, Day 2
  Number of Rats Exhibiting Estrogenic Response/Number of Rats Treated: 1/8
[2]; po, 0.1 mg/kg/day, Day 3
  Number of Rats Exhibiting Estrogenic Response/Number of Rats Treated: 7/8
[2]; po, 0.1 mg/kg/day, Day 4
  Number of Rats Exhibiting Estrogenic Response/Number of Rats Treated: 8/8
[2]; po, 0.1 mg/kg/day, Day 5
  Number of Rats Exhibiting Estrogenic Response/Number of Rats Treated: 8/8
[2]; po, 0.1 mg/kg/day, Day 6
  Number of Rats Exhibiting Estrogenic Response/Number of Rats Treated: 8/8
[2]; po, 0.1 mg/kg/day, Day 7
  Number of Rats Exhibiting Estrogenic Response/Number of Rats Treated: 8/8
[2]; po, 0.3 mg/kg/day, Day 0
  Number of Rats Exhibiting Estrogenic Response/Number of Rats Treated: 0/8
[2]; po, 0.3 mg/kg/day, Day 1
  Number of Rats Exhibiting Estrogenic Response/Number of Rats Treated: 0/8
[2]; po, 0.3 mg/kg/day, Day 2
  Number of Rats Exhibiting Estrogenic Response/Number of Rats Treated: 1/8
[2]; po, 0.3 mg/kg/day, Day 3
  Number of Rats Exhibiting Estrogenic Response/Number of Rats Treated: 7/8
[2]; po, 0.3 mg/kg/day, Day 4
  Number of Rats Exhibiting Estrogenic Response/Number of Rats Treated: 8/8
[2]; po, 0.3 mg/kg/day, Day 5
  Number of Rats Exhibiting Estrogenic Response/Number of Rats Treated: 8/8
[2]; po, 0.3 mg/kg/day, Day 6
  Number of Rats Exhibiting Estrogenic Response/Number of Rats Treated: 8/8
[2]; po, 0.3 mg/kg/day, Day 7
  Number of Rats Exhibiting Estrogenic Response/Number of Rats Treated: 8/8
[2]; po, 1.0 mg/kg/day, Day 0
  Number of Rats Exhibiting Estrogenic Response/Number of Rats Treated: 0/8
[2]; po, 1.0 mg/kg/day, Day 1
  Number of Rats Exhibiting Estrogenic Response/Number of Rats Treated: 0/8
[2]; po, 1.0 mg/kg/day, Day 2
  Number of Rats Exhibiting Estrogenic Response/Number of Rats Treated: 4/8
[2]; po, 1.0 mg/kg/day, Day 3
  Number of Rats Exhibiting Estrogenic Response/Number of Rats Treated: 8/8
[2]; po, 1.0 mg/kg/day, Day 4
  Number of Rats Exhibiting Estrogenic Response/Number of Rats Treated: 8/8
[2]; po, 1.0 mg/kg/day, Day 5
  Number of Rats Exhibiting Estrogenic Response/Number of Rats Treated: 8/8
[2]; po, 1.0 mg/kg/day, Day 6
  Number of Rats Exhibiting Estrogenic Response/Number of Rats Treated: 8/8
[2]; po, 1.0 mg/kg/day, Day 7
  Number of Rats Exhibiting Estrogenic Response/Number of Rats Treated: 8/8
[2]; po, 3.0 mg/kg/day, Day 0
  Number of Rats Exhibiting Estrogenic Response/Number of Rats Treated: 0/8
[2]; po, 3.0 mg/kg/day, Day 1
  Number of Rats Exhibiting Estrogenic Response/Number of Rats Treated: 0/8
[2]; po, 3.0 mg/kg/day, Day 2
  Number of Rats Exhibiting Estrogenic Response/Number of Rats Treated: 6/8
[2]; po, 3.0 mg/kg/day, Day 3
  Number of Rats Exhibiting Estrogenic Response/Number of Rats Treated: 8/8
[2]; po, 3.0 mg/kg/day, Day 4
  Number of Rats Exhibiting Estrogenic Response/Number of Rats Treated: 8/8
[2]; po, 3.0 mg/kg/day, Day 5
  Number of Rats Exhibiting Estrogenic Response/Number of Rats Treated: 8/8
[2]; po, 3.0 mg/kg/day, Day 6
  Number of Rats Exhibiting Estrogenic Response/Number of Rats Treated: 8/8
[2]; po, 3.0 mg/kg/day, Day 7
  Number of Rats Exhibiting Estrogenic Response/Number of Rats Treated: 8/8
[2]; relatively low doses, e.g. 0.1 mg/kg/day
  onset of vaginal cornification (animals responding at days 1-3), po versus sc: faster in po-treated
[2]; sc 0.1, 0.3, 1.0 and 3.0 mg/kg/day
  onset of vaginal epithelial cornification: dose-dependent
[2]; sc, 0.1 mg/kg/day, Day 0
  Number of Rats Exhibiting Estrogenic Response/Number of Rats Treated: 0/8
[2]; sc, 0.1 mg/kg/day, Day 1
  Number of Rats Exhibiting Estrogenic Response/Number of Rats Treated: 0/8
[2]; sc, 0.1 mg/kg/day, Day 2
  Number of Rats Exhibiting Estrogenic Response/Number of Rats Treated: 0/8
[2]; sc, 0.1 mg/kg/day, Day 3
  Number of Rats Exhibiting Estrogenic Response/Number of Rats Treated: 1/8
[2]; sc, 0.1 mg/kg/day, Day 4
  Number of Rats Exhibiting Estrogenic Response/Number of Rats Treated: 1/8
[2]; sc, 0.1 mg/kg/day, Day 5
  Number of Rats Exhibiting Estrogenic Response/Number of Rats Treated: 4/8
[2]; sc, 0.1 mg/kg/day, Day 6
  Number of Rats Exhibiting Estrogenic Response/Number of Rats Treated: 3/8
[2]; sc, 0.1 mg/kg/day, Day 7
  Number of Rats Exhibiting Estrogenic Response/Number of Rats Treated: 4/8
[2]; sc, 0.3 mg/kg/day, Day 0
  Number of Rats Exhibiting Estrogenic Response/Number of Rats Treated: 0/8
[2]; sc, 0.3 mg/kg/day, Day 1
  Number of Rats Exhibiting Estrogenic Response/Number of Rats Treated: 0/8
[2]; sc, 0.3 mg/kg/day, Day 2
  Number of Rats Exhibiting Estrogenic Response/Number of Rats Treated: 1/8
[2]; sc, 0.3 mg/kg/day, Day 3
  Number of Rats Exhibiting Estrogenic Response/Number of Rats Treated: 5/8
[2]; sc, 0.3 mg/kg/day, Day 4
  Number of Rats Exhibiting Estrogenic Response/Number of Rats Treated: 7/8
[2]; sc, 0.3 mg/kg/day, Day 5
  Number of Rats Exhibiting Estrogenic Response/Number of Rats Treated: 6/8
[2]; sc, 0.3 mg/kg/day, Day 6
  Number of Rats Exhibiting Estrogenic Response/Number of Rats Treated: 7/8
[2]; sc, 0.3 mg/kg/day, Day 7
  Number of Rats Exhibiting Estrogenic Response/Number of Rats Treated: 7/8
[2]; sc, 1.0 mg/kg/day, Day 0
  Number of Rats Exhibiting Estrogenic Response/Number of Rats Treated: 0/8
[2]; sc, 1.0 mg/kg/day, Day 1
  Number of Rats Exhibiting Estrogenic Response/Number of Rats Treated: 0/8
[2]; sc, 1.0 mg/kg/day, Day 2
  Number of Rats Exhibiting Estrogenic Response/Number of Rats Treated: 1/8
[2]; sc, 1.0 mg/kg/day, Day 3
  Number of Rats Exhibiting Estrogenic Response/Number of Rats Treated: 6/8
[2]; sc, 1.0 mg/kg/day, Day 4
  Number of Rats Exhibiting Estrogenic Response/Number of Rats Treated: 8/8
[2]; sc, 1.0 mg/kg/day, Day 5
  Number of Rats Exhibiting Estrogenic Response/Number of Rats Treated: 7/8
[2]; sc, 1.0 mg/kg/day, Day 6
  Number of Rats Exhibiting Estrogenic Response/Number of Rats Treated: 8/8
[2]; sc, 1.0 mg/kg/day, Day 7, 1 mg/kg/day
  Number of Rats Exhibiting Estrogenic Response/Number of Rats Treated: all rats and 8/8
[2]; sc, 3.0 mg/kg/day, Day 0
  Number of Rats Exhibiting Estrogenic Response/Number of Rats Treated: 0/8
[2]; sc, 3.0 mg/kg/day, Day 1
  Number of Rats Exhibiting Estrogenic Response/Number of Rats Treated: 0/8
[2]; sc, 3.0 mg/kg/day, Day 2
  Number of Rats Exhibiting Estrogenic Response/Number of Rats Treated: 3/8
[2]; sc, 3.0 mg/kg/day, Day 3
  Number of Rats Exhibiting Estrogenic Response/Number of Rats Treated: 8/8
[2]; sc, 3.0 mg/kg/day, Day 4
  Number of Rats Exhibiting Estrogenic Response/Number of Rats Treated: 8/8
[2]; sc, 3.0 mg/kg/day, Day 5
  Number of Rats Exhibiting Estrogenic Response/Number of Rats Treated: 8/8
[2]; sc, 3.0 mg/kg/day, Day 6
  Number of Rats Exhibiting Estrogenic Response/Number of Rats Treated: 8/8
[2]; sc, 3.0 mg/kg/day, Day 7, 3 mg/kg/day
  Number of Rats Exhibiting Estrogenic Response/Number of Rats Treated: all rats and 8/8
